Key:
Type in all cases: in vivo
[1] = tested on: barnyard grass, Echinochloa crusgalli; assay: Herbicidal activity, post-emergence soil drench test; conditions: 10 kg/ha soil drench; assessed visually thirteen days after drenching; 0-9 scale, 0 = growth as untreated control, 9 = death
Description: (§1) To evaluate their herbicidal activity, compounds according to the invention were tested using as representative range of plants: maize, Zea mays (Mz); rice, Oryza sativa (R); barnyard grass, Echinochloa crusgalli (BG); oat, Avena sativa (0); linseed, Linum usitatissisum (L); mustard, Sinapsis alba (M); sugar beet, Beta vulgaris (SB) and soya bean, Glycine max (S).
(§2) The tests fall into two categories, pre-emergence and post-emergence. […] The post-emergence tests involved two types of test, viz., soil drench and foliar spray tests. In the soil drench tests the soil in which the seedling plants of the above species were growing was drenched with a liquid formulation containing a compound of the invention, and in the foliar spray tests the seedling plants were sprayed with such a formulation.
(§3) The soil used in the tests was a prepared horticultural loam.
(§4) These acetone solutions were diluted with water and the resulting formulations applied at dosage levels corresponding to 5 kg or 1 kg of active material per hectare in a volume equivalent to 600 litres per hectare in the soil spray and foliar spray test, and at a dosage of level equivalent to 10 kilograms of active material per hectare in a volume equivalent to approximately 3,000 litres per hectare in the soil drench tests.
(§5) In the pre-emexgence tests untreated sown soil and in the post-emergence tests untreated soil bearing seedling plants were used as controls.
(§6) The herbicidal effects of the test compounds were assessed visually twelve days after spraying the foliage and the soil, and thirteen days after drenching the soil and were recorded on a 0-9 scale. A rating 0 indicates growth as untreated control, a rating 9 indicates death. An increase of 1 unit on the linear scale approximates to a 10% increase in the level of effect.

[2] = tested on: linseed, Linum usitatissisum; assay: as above; conditions: 10 kg/ha soil drench; assessed visually thirteen days after drenching; 0-9 scale, 0 = growth as untreated control, 9 = death
Description: as §1, §2, §3, §4, §5, §6

[3] = tested on: maize, Zea mays; assay: as above; conditions: 10 kg/ha soil drench; assessed visually thirteen days after drenching; 0-9 scale, 0 = growth as untreated control, 9 = death
Description: as §1, §2, §3, §4, §5, §6

[4] = tested on: mustard, Sinapsis alba; assay: as above; conditions: 10 kg/ha soil drench; assessed visually thirteen days after drenching; 0-9 scale, 0 = growth as untreated control, 9 = death
Description: as §1, §2, §3, §4, §5, §6

[5] = tested on: oat, Avena sativa; assay: as above; conditions: 10 kg/ha soil drench; assessed visually thirteen days after drenching; 0-9 scale, 0 = growth as untreated control, 9 = death
Description: as §1, §2, §3, §4, §5, §6

[6] = tested on: rice, Oryza sativa; assay: as above; conditions: 10 kg/ha soil drench; assessed visually thirteen days after drenching; 0-9 scale, 0 = growth as untreated control, 9 = death
Description: as §1, §2, §3, §4, §5, §6

[7] = tested on: soya bean, Glycine max; assay: as above; conditions: 10 kg/ha soil drench; assessed visually thirteen days after drenching; 0-9 scale, 0 = growth as untreated control, 9 = death
Description: as §1, §2, §3, §4, §5, §6

[8] = tested on: sugar beet, Beta vulgaris; assay: as above; conditions: 10 kg/ha soil drench; assessed visually thirteen days after drenching; 0-9 scale, 0 = growth as untreated control, 9 = death
Description: as §1, §2, §3, §4, §5, §6

[9] = tested on: barnyard grass, Echinochloa crusgalli; assay: Herbicidal activity, post-emergence foliar spray test; conditions: assessed visually twelve days after spraying, 0-9 scale, 0 = growth as untreated control, 9 = death
Description: as §1, §2, §3, §4, §5, §6

[10] = tested on: linseed, Linum usitatissisum; assay: as above; conditions: assessed visually twelve days after spraying, 0-9 scale, 0 = growth as untreated control, 9 = death
Description: as §1, §2, §3, §4, §5, §6

[11] = tested on: maize, Zea mays; assay: as above; conditions: assessed visually twelve days after spraying, 0-9 scale, 0 = growth as untreated control, 9 = death
Description: as §1, §2, §3, §4, §5, §6

[12] = tested on: mustard, Sinapsis alba; assay: as above; conditions: assessed visually twelve days after spraying, 0-9 scale, 0 = growth as untreated control, 9 = death
Description: as §1, §2, §3, §4, §5, §6

[13] = tested on: oat, Avena sativa; assay: as above; conditions: assessed visually twelve days after spraying, 0-9 scale, 0 = growth as untreated control, 9 = death
Description: as §1, §2, §3, §4, §5, §6

[14] = tested on: rice, Oryza sativa; assay: as above; conditions: assessed visually twelve days after spraying, 0-9 scale, 0 = growth as untreated control, 9 = death
Description: as §1, §2, §3, §4, §5, §6

[15] = tested on: soya bean, Glycine max; assay: as above; conditions: assessed visually twelve days after spraying, 0-9 scale, 0 = growth as untreated control, 9 = death
Description: as §1, §2, §3, §4, §5, §6

[16] = tested on: sugar beet, Beta vulgaris; assay: as above; conditions: assessed visually twelve days after spraying, 0-9 scale, 0 = growth as untreated control, 9 = death
Description: as §1, §2, §3, §4, §5, §6

[17] = tested on: barnyard grass, Echinochloa crusgalli; assay: Herbicidal activity, pre-emergence test (soil spray); conditions: assessed visually twelve days after spraying, 0-9 scale, 0 = growth as untreated control, 9 = death
Description: as §1, §2, §3, §4, §5, §6

[18] = tested on: linseed, Linum usitatissisum; assay: as above; conditions: assessed visually twelve days after spraying, 0-9 scale, 0 = growth as untreated control, 9 = death
Description: as §1, §2, §3, §4, §5, §6

[19] = tested on: maize, Zea mays; assay: as above; conditions: assessed visually twelve days after spraying, 0-9 scale, 0 = growth as untreated control, 9 = death
Description: as §1, §2, §3, §4, §5, §6

[20] = tested on: mustard, Sinapsis alba; assay: as above; conditions: assessed visually twelve days after spraying, 0-9 scale, 0 = growth as untreated control, 9 = death
Description: as §1, §2, §3, §4, §5, §6

[21] = tested on: oat, Avena sativa; assay: as above; conditions: assessed visually twelve days after spraying, 0-9 scale, 0 = growth as untreated control, 9 = death
Description: as §1, §2, §3, §4, §5, §6

[22] = tested on: rice, Oryza sativa; assay: as above; conditions: assessed visually twelve days after spraying, 0-9 scale, 0 = growth as untreated control, 9 = death
Description: as §1, §2, §3, §4, §5, §6

[23] = tested on: soya bean, Glycine max; assay: as above; conditions: assessed visually twelve days after spraying, 0-9 scale, 0 = growth as untreated control, 9 = death
Description: as §1, §2, §3, §4, §5, §6

[24] = tested on: sugar beet, Beta vulgaris; assay: as above; conditions: assessed visually twelve days after spraying, 0-9 scale, 0 = growth as untreated control, 9 = death
Description: as §1, §2, §3, §4, §5, §6

SMILES	Soil drench 10/kg/ha BG (herbicidal effect rating) [1]	Soil drench 10/kg/ha L (herbicidal effect rating) [2]	Soil drench 10/kg/ha Mz (herbicidal effect rating) [3]	Soil drench 10/kg/ha M (herbicidal effect rating) [4]	Soil drench 10/kg/ha O (herbicidal effect rating) [5]	Soil drench 10/kg/ha R (herbicidal effect rating) [6]	Soil drench 10/kg/ha S (herbicidal effect rating) [7]	Soil drench 10/kg/ha SB (herbicidal effect rating) [8]	Foliar spray BG (herbicidal effect rating) ([9]; Dosage 1 kg/ha)	Foliar spray BG (herbicidal effect rating) ([9]; Dosage 5 kg/ha)	Foliar spray L (herbicidal effect rating) ([10]; Dosage 1 kg/ha)	Foliar spray L (herbicidal effect rating) ([10]; Dosage 5 kg/ha)	Foliar spray Mz (herbicidal effect rating) ([11]; Dosage 1 kg/ha)	Foliar spray Mz (herbicidal effect rating) ([11]; Dosage 5 kg/ha)	Foliar spray M (herbicidal effect rating) ([12]; Dosage 1 kg/ha)	Foliar spray M (herbicidal effect rating) ([12]; Dosage 5 kg/ha)	Foliar spray O (herbicidal effect rating) ([13]; Dosage 1 kg/ha)	Foliar spray O (herbicidal effect rating) ([13]; Dosage 5 kg/ha)	Foliar spray R (herbicidal effect rating) ([14]; Dosage 1 kg/ha)	Foliar spray R (herbicidal effect rating) ([14]; Dosage 5 kg/ha)	further results
COC(=O)c1cc2cc3c(cc2nc1C1=NC(=O)C(C)(C(C)C)N1)OCO3 (centres unmarked) [Example 1, Methyl-2-(5-i.saprapyl-5-methyl-4-oxo-2-imidazolin-2-yl)-[1,3]-dioxolo[4,5-g] quinoline-3-carboxylate]	7	6	6	8	6	7	4	7	4	7	6	7	5	7	5	7	5	6	4	6	Foliar spray S (herbicidal effect rating) ([15]; Dosage 1 kg/ha): 0; Foliar spray S (herbicidal effect rating) ([15]; Dosage 5 kg/ha): 2; Foliar spray SB (herbicidal effect rating) ([16]; Dosage 1 kg/ha): 6; Foliar spray SB (herbicidal effect rating) ([16]; Dosage 5 kg/ha): 8; Pre-emergence BG (herbicidal effect rating) ([17]; Dosage 1 kg/ha): 5; Pre-emergence BG (herbicidal effect rating) ([17]; Dosage 5 kg/ha): 8; Pre-emergence L (herbicidal effect rating) ([18]; Dosage 1 kg/ha): 6; Pre-emergence L (herbicidal effect rating) ([18]; Dosage 5 kg/ha): 7; Pre-emergence Mz (herbicidal effect rating) ([19]; Dosage 1 kg/ha): 5; Pre-emergence Mz (herbicidal effect rating) ([19]; Dosage 5 kg/ha): 7; Pre-emergence M (herbicidal effect rating) ([20]; Dosage 1 kg/ha): 4; Pre-emergence M (herbicidal effect rating) ([20]; Dosage 5 kg/ha): 7; Pre-emergence O (herbicidal effect rating) ([21]; Dosage 1 kg/ha): 5; Pre-emergence O (herbicidal effect rating) ([21]; Dosage 5 kg/ha): 7; Pre-emergence R (herbicidal effect rating) ([22]; Dosage 1 kg/ha): 4; Pre-emergence R (herbicidal effect rating) ([22]; Dosage 5 kg/ha): 8; Pre-emergence S (herbicidal effect rating) ([23]; Dosage 1 kg/ha): 0; Pre-emergence S (herbicidal effect rating) ([23]; Dosage 5 kg/ha): 0; Pre-emergence SB (herbicidal effect rating) ([24]; Dosage 1 kg/ha): 6; Pre-emergence SB (herbicidal effect rating) ([24]; Dosage 5 kg/ha): 6
CC(C)C1(C)NC(c2nc3cc4c(cc3cc2C(=O)O)OCO4)=NC1=O (centres unmarked) [Example 2, 2-(5-methyl-5-isopropyl-4-oxo-2-imidazolin-2-yl)-[1,3]-dioxolo[4,5-g] quinoline-3-carboxylic acid]	9	7	7	9	7	7	6	8	7	7	6	6	6	7	7	7	6	7	6	6	Foliar spray S (herbicidal effect rating) ([15]; Dosage 1 kg/ha): 2; Foliar spray S (herbicidal effect rating) ([15]; Dosage 5 kg/ha): 4; Foliar spray SB (herbicidal effect rating) ([16]; Dosage 1 kg/ha): 7; Foliar spray SB (herbicidal effect rating) ([16]; Dosage 5 kg/ha): 7; Pre-emergence BG (herbicidal effect rating) ([17]; Dosage 1 kg/ha): 8; Pre-emergence BG (herbicidal effect rating) ([17]; Dosage 5 kg/ha): 8; Pre-emergence L (herbicidal effect rating) ([18]; Dosage 1 kg/ha): 8; Pre-emergence L (herbicidal effect rating) ([18]; Dosage 5 kg/ha): 9; Pre-emergence Mz (herbicidal effect rating) ([19]; Dosage 1 kg/ha): 8; Pre-emergence Mz (herbicidal effect rating) ([19]; Dosage 5 kg/ha): 8; Pre-emergence M (herbicidal effect rating) ([20]; Dosage 1 kg/ha): 7; Pre-emergence M (herbicidal effect rating) ([20]; Dosage 5 kg/ha): 7; Pre-emergence O (herbicidal effect rating) ([21]; Dosage 1 kg/ha): 7; Pre-emergence O (herbicidal effect rating) ([21]; Dosage 5 kg/ha): 7; Pre-emergence R (herbicidal effect rating) ([22]; Dosage 1 kg/ha): 9; Pre-emergence R (herbicidal effect rating) ([22]; Dosage 5 kg/ha): 9; Pre-emergence S (herbicidal effect rating) ([23]; Dosage 1 kg/ha): 8; Pre-emergence S (herbicidal effect rating) ([23]; Dosage 5 kg/ha): 8; Pre-emergence SB (herbicidal effect rating) ([24]; Dosage 1 kg/ha): 8; Pre-emergence SB (herbicidal effect rating) ([24]; Dosage 5 kg/ha): 8
